Experiment [1] addresses T1, Ls-AChBP (Lymnaea stagnalis, UniProt P58154).
T1 construct: soluble homopentamer, AChBP pentamer 125 kDa; amine-coupled for SAW and GCI
As to the kind of experiment: SAW biosensor, phase signal. As to conditions: pH 7.4, 25 °C, 5% DMSO; immobilised protein; unreliable (very rough approximation, steady state not always reached). The class given is binding. From the text: SAW biosensor, phase signal on Ls-AChBP

For experiment [2], the target named is T1, Ls-AChBP. As to the kind of experiment: GCI biosensor, steady state. The class given is binding.

Experimental findings from publication PMC12394895, “Detection and characterisation of ligand-induced conformational changes in acetylcholine binding proteins using biosensors and X-ray crystallography” (RSC Chemical Biology, 2025) are described below.

T1 sequence (P58154 20-229): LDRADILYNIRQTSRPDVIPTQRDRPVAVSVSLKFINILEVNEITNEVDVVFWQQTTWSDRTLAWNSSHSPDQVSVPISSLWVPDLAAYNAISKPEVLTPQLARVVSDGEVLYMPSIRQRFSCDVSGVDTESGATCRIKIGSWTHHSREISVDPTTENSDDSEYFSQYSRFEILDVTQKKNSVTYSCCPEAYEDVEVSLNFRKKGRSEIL

On to VUF6105, for which, at Ls-AChBP [1], the “Phase KD” value worked out at 12000 nM. In the case of `CCn1ccnc1-c1cccc(-c2ccccn2)n1` [VUF24234], on Ls-AChBP [2], binding was characterised by a dissociation constant (Kd) of 5000 nM. Turning to `CC(=O)OCC[N+](C)(C)C` [acetylcholine], the “Phase KD” value on Ls-AChBP [1] is 610 nM.

For `CN1CCC[C@H]1c1cccnc1` [nicotine], the “Phase KD” value at Ls-AChBP [1] was determined as 35 nM. `Cn1ccnc1/C=C/c1ccc(O)c(O)c1` [VUF22430] returned a Kd at Ls-AChBP [2] of 1300 nM.

The term Kd denotes a measure of binding affinity in units of concentration. The low end stands for tighter binding, the high end for weaker binding.
